Reference: patent publication US20240391887A1, “New VASHs inhibitors, conjugates thereof and their uses as drugs or as research tools” (Centre National de Recherche Scientifique (CNRS), priority 2021, published 2024)
Entries after “also recorded” stand apart in the source; their conditions may differ. Like-named read-outs stand apart in the source and are kept apart here.

Key:
VASH2 = VASH2 (Homo sapiens, UniProt Q86V25); experiment: In vitro detyrosination assay, VASH2-mediated (immunoblot); assay type: biochemical; settings: concentration not given
[1] = test system: VASH-mediated tubulin detyrosination in human CHL-1 cells; experiment: In cellulo taxol-induced tubulin detyrosination assay in CHL-1 cells
VASH1 [2] = target: T1, VASH1 (Homo sapiens, UniProt Q7L8A9); experiment: In vitro detyrosination assay using recombinant VASH1 (immunoblot); settings: concentration not given
VASH1 [3] = target: T1, VASH1; experiment: Standardized in vitro detyrosination ELISA based assay; assay type: biochemical; parameters: poly-histidine tag; made in house; host or cells: bacteria (IPTG induction); settings: for Fold change/ LV-80: ratio IC50(compound)/IC50(LV80); for in vitro activity compared with reference compounds / in vitro VASH inhibition activity: in vitro detyrosination assay
Description: Standardized primary ELISA-based in vitro detyrosination assay in a 96-wells format has been developed according to the method disclosed in WO2020/012002. […] Primary (rabbit anti-detyrosinated tubulin) is incubated for 1 hour and after washes, secondary (anti-rabbit) antibody is added to each well. The plate is incubated 1 h at room temperature. Development consists of addition of TMB (3,3′,5,5′-Tetramethylbenzidine) to each well, incubation 30 minute at room temperature. The colour development is stopped by addition of 0.5 M sulfuric acid. OD is measured at 450 nm.
The in vitro inhibition activity of IBMT11 is tested by adding the compound to the reaction medium as described above (see part 2.2) and then detyrosination was analysed by immunoblotting with the indicated antibodies.

VASHs = settings: background statement; read-out: IC50 in cellulo; cited from earlier work
[4] = Solubility in water or PBS solution; assay type: physicochemical; settings: compared with the corresponding base LV-80
CHL-1 cells [5] = experiment: MTT-based colorimetric cell viability assay; parameters: species or system human; settings: 0.1 μM, 24 hours
Source text: We next choose a widely used MTT-based colorimetric assay to assess the potential metabolic toxicity and cell viability alterations in the presence of LV-80. […]

CHL-1 cells [6] = experiment: LC/MS bioanalysis of penetration and conversion in human cells; assay type: in vitro ADME; settings: 25 uM, 1 hour
Description: CHL-1 cells have been treated with 25 uM of LV-104 for 1 hour. Culture supernatant have been collected immediately (initial) and 1 hour (supernatant) after compound addition. Cells have been washed, lysed and processed for LC/MS reading (Cells) to detect LV-104 and its bio converted form IBMT11.
Peptide stability in serum Human serum reaction sample contained 250 μl of heat inactivated Human Serum (Sigma Aldrich) and 750 μL of RPMI Medium 1640 (Sigma Aldrich). The reactions were initiated by addition of 50 μl compound (in mM stock solution in DMSO). Assays were performed in a shaking water bath at 37° C. 100 μl samples were collected at known time intervals and added to 200 μl of acetonitrile 1% % TFA to precipitate serum proteins. Cloudy sample was cooled to 4° C. for 15 min and then submitted to centrifugation for 10 min at 12,000 rpm to pellet the precipitated serum proteins. 150 μl of the clear supernatants were collected and peptides were finally analyzed by RPHPLC and LC-MS.
The bioanalysis of the penetration and the conversion of the compound LV-104 has been achieved using the above described protocol on human cells (see part 2.2). The results are illustrated on FIG. 14.

carboxypeptidase A (CPA) = target: T2, carboxypeptidase A (CPA) (Bos taurus, UniProt P00730); experiment: Carboxypeptidase A-dependent tubulin detyrosination in vitro; assay type: biochemical; settings: concentration not given
T2 sequence (P00730 111-419): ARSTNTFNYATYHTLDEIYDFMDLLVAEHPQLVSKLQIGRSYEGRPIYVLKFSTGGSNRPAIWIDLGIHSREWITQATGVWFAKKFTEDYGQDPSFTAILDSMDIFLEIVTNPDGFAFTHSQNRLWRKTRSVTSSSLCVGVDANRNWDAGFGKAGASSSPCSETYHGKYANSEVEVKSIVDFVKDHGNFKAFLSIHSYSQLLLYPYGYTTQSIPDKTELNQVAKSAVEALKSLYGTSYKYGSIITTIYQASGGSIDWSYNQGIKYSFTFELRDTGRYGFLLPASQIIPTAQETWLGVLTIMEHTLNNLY

[7] = read-out: IC50 on cells, compounds added prior Taxol-treatment, FIG. 12
[8] = calculated in vitro IC50, read-out: IC50

T1 sequence (Q7L8A9 whole entry): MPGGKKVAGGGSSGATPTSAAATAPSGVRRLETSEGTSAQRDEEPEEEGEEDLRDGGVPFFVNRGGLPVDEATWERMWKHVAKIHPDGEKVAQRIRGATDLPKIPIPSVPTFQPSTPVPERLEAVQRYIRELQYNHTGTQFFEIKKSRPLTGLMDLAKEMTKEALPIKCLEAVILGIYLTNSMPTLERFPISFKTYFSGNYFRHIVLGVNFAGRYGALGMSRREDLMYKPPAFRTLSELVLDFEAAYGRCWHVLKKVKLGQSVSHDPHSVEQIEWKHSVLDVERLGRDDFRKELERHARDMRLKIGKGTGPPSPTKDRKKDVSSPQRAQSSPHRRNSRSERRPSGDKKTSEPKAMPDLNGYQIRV
T1 sequence (Q8N300 whole entry partner): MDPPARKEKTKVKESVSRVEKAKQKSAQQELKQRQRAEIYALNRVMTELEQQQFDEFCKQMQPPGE
Sequence of VASH2 (Q86V25 whole entry, species assumed): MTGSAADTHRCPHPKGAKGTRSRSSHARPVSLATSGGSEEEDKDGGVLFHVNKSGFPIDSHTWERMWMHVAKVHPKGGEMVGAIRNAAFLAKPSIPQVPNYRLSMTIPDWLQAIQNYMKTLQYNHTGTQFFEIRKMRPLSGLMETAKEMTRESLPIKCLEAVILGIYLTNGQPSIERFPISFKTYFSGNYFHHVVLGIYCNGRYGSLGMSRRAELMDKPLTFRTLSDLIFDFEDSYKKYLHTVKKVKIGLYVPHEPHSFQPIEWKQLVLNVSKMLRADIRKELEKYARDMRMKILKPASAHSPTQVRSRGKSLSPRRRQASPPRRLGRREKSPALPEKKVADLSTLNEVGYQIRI

CCOC(=O)[C@H](Cc1ccc(OCC)cc1)NC(=O)[C@H]1O[C@@H]1C(=O)OCC [LV-111]
effect on VASH2-mediated detyrosination in vitro (VASH2): did not have any effect
IC50 [1, 7]: 0.02 µM
effect on VASH1-mediated detyrosination in vitro (VASH1 [2]): did not have any effect

O=C(O)[C@H](Cc1ccc(O)cc1)NC(=O)[C@H]1O[C@@H]1C(=O)N[C@@H](Cc1ccc(O)cc1)C(=O)O [LV-59]
IC50 (VASH1 [3]; [8]): 1.2 µM
Fold change/ LV-80 (VASH1 [3]): 4

CCOC(=O)[C@H]1O[C@@H]1C(=O)N[C@@H](Cc1ccc(O)cc1)C(=O)O [Epo-Y, reference compound]
IC50 (VASHs): ~15 µM
IC50 ([1]; read-out: IC50 in cellulo, taxol-induced detyrosination assay, FIG. 4F): 3 µM
effect on tubulin acetylation ([1]; taxol treated CHL-1 cells): without affecting
inhibition of tubulin detyrosination in cellulo ([1]; taxol treated CHL-1 cells): dose-dependently inhibited; also recorded: reduced tubulin detyrosination in a dose-dependent manner

O=C([O-])CCC[C@H](NC(=O)[C@H]1O[C@@H]1C(=O)N[C@@H](Cc1ccc(OCc2ccccc2)cc1)C(=O)[O-])C(=O)NCCc1ccccc1.[Na+].[Na+] [IBMT-34]
IC50 (VASH1 [3]; [8]): 0.3 µM
in vitro activity compared with reference compounds (VASH1 [3]): same activity
Fold change/ LV-80 (VASH1 [3]): 1
in cellulo activity compared with reference compounds ([1]; taxol treated CHL-1 cells): same activity
solubility in water or PBS solution [4]: dramatically increased

CCOC(=O)CCCCNC(=O)[C@H]1O[C@@H]1C(=O)N[C@@H](Cc1ccc(OCC)cc1)C(=O)OCC [IBMT23]
in vitro VASH inhibition activity (VASH1 [3]): inactive
in cellulo activity compared with reference compounds ([1]; taxol treated CHL-1 cells): more potent on cultured cells than LV80; also recorded: as potent in vivo as LV80
inhibition of tubulin detyrosination in cellulo ([1]; taxol treated CHL-1 cells): excellent

O=C(O)CCC[C@@H](NC(=O)[C@H]1O[C@@H]1C(=O)N[C@@H](Cc1ccc(OCc2ccccc2)cc1)C(=O)O)C(=O)NCCc1ccccc1 [IBMT-29 hydro]
IC50 (VASH1 [3]; [8]): 0.3 µM
Fold change/ LV-80 (VASH1 [3]): 1

CC(C)(C)ONC(=O)CCC[C@@H](NC(=O)[C@H]1O[C@@H]1C(=O)N[C@@H](Cc1ccc(OCc2ccccc2)cc1)C(=O)O)C(=O)NCCc1ccccc1 [IBMT-31 hydro]
IC50 (VASH1 [3]; [8]): 3.9 µM
Fold change/ LV-80 (VASH1 [3]): 13

CC(=O)O[C@H]1C(=O)[C@@]2(C)[C@H]([C@H](OC(=O)c3ccccc3)[C@]3(O)C[C@H](OC(=O)[C@H](O)[C@@H](NC(=O)c4ccccc4)c4ccccc4)C(C)=C1C3(C)C)[C@]1(OC(C)=O)CO[C@@H]1C[C@@H]2O [taxol, paclitaxel]
cell viability (CHL-1 cells [5]): significant reduction

CCOC(=O)C1OC1C(=O)NC(Cc1ccc(O)cc1)C(=O)OC(C)(C)C (stereo not drawn) [SD-139, reference compound]
in vitro activity compared with reference compounds (VASH1 [3]): very less potent than LV-80

CCOc1ccc(C[C@H](NC(=O)[C@H]2O[C@@H]2C(=O)N[C@H](Cc2ccc(OCC)cc2)C(=O)O)C(=O)O)cc1 [IBMT-11]
IC50 (VASH1 [3]; VASH1-mediated tubulin detyrosination, FIG. 13.A, read-out: in vitro IC50): 0.6 µM
in vitro activity compared with reference compounds (VASH1 [3]): more potently than Epo-Y
Fold change/ LV-80 (VASH1 [3]): 2
inhibition of tubulin detyrosination in cellulo ([1]; taxol treated CHL-1 cells): weak inhibition activity

O=C(O)C(Cc1ccc(O)cc1)NC(=O)C1OC1C(=O)O (stereo not drawn) [SD-139sapo, reference compound]
in vitro activity compared with reference compounds (VASH1 [3]): very less potent than LV-80

CCOC(=O)[C@H](Cc1ccc(OCc2ccccc2)cc1)NC(=O)[C@H]1O[C@@H]1C(=O)N[C@H](CCCC(=O)O)C(=O)NCCc1ccccc1 [IBMT-29]
IC50 (VASH1 [3]; [8]): 4.2 µM
Fold change/ LV-80 (VASH1 [3]): 14

O=C(O)[C@H](Cc1ccc(OCc2ccccc2)cc1)NC(=O)[C@H]1O[C@@H]1C(=O)N[C@@H](Cc1ccc(OCc2ccccc2)cc1)C(=O)O [Synthé Mix hydro]
IC50 (VASH1 [3]; [8]): 0.6 µM
Fold change/ LV-80 (VASH1 [3]): 2

CCOC(=O)[C@H](Cc1ccc(OCC)cc1)NC(=O)[C@H]1O[C@@H]1C(=O)N[C@@H](Cc1ccc(OCC)cc1)C(=O)OCC [LV-104]
in vitro VASH inhibition activity (VASH1 [3]): did not inhibit
effect on VASH2-mediated detyrosination in vitro (VASH2): did not have any effect
IC50 [1, 7]: 0.008 µM
inhibition of tubulin detyrosination in cellulo ([1]; taxol treated CHL-1 cells): very efficient inhibition
conversion of prodrug into IBMT11 inside human cells (CHL-1 cells [6]): total conversion
detection of parent compound inside cells (CHL-1 cells [6]): undetectable
effect on VASH1-mediated detyrosination in vitro (VASH1 [2]): did not have any effect

NC(=O)C(CCCC(=O)O)NC(=O)C1OC1C(=O)NC(Cc1ccc(O)cc1)C(=O)O (stereo not drawn) [LV-43]
in cellulo activity compared with reference compounds ([1]; taxol treated CHL-1 cells): much less efficient than Epo-Y

O=C(O)CC(Cc1ccccc1)C(=O)O (stereo not drawn) [BzISA, benzylsuccinic acid, reference compound]
effect on CPA-dependent detyrosination (carboxypeptidase A (CPA)): completely abolished
effect on VASH2-mediated detyrosination in vitro (VASH2): did not affect
effect on VASH1-mediated detyrosination in vitro (VASH1 [2]): did not affect

CCOc1ccc(C[C@H](NC(=O)[C@H]2O[C@@H]2C(=O)NCCCCC(=O)O)C(=O)O)cc1 [IBMT-26]
IC50 (VASH1 [3]; [8]): 3.9 µM
Fold change/ LV-80 (VASH1 [3]): 13
